Measured values from the supplement of paper PMC10307832.

How the values were obtained:
Assay in all cases: relative viability (nuclei count vs DMSO), 5 days (fraction); higher = more cells survive
[1] = compound: C1=CC=C2C(=C1)C=CC(=C2SSC3=C(C=CC4=CC=CC=C43)O)O [IPA-3]
Outline: (§1)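 Five library-drug doses spaced by √10 were pinned onto vehicle-anchored 1536-well plates of lung cancer cell lines that had been kept overnight at 37 °C. Cells went 5 days without medium change, then were fixed, permeabilised and Hoechst-stained together, imaged at 4× and counted by MetaXpress. Viability is the ratio of treated-well to vehicle-well nuclei, taken as a median over plates. Plates required control CV below 25% and at least one doubling.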

[2] = compound: Cc1ccc(-n2nc(C(C)(C)C)cc2NC(=O)Nc2ccc(OCCN3CCOCC3)c3ccccc23)cc1 [Doramapimod]
Outline: as §1

[3] = compound: Cn1c(Nc2ccc(C(F)(F)F)cc2)nc2cc(Oc3ccnc(-c4ncc(C(F)(F)F)[nH]4)c3)ccc21 [RAF265]
Outline: as §1

[4] = compound: C1=CC=C2C(=C1)C=CC(=C2SSC3=C(C=CC4=CC=CC=C43)O)O [IPA-3] + Cc1nc(NC(=O)N2CCC[C@H]2C(N)=O)sc1-c1ccnc(C(C)(C)C(F)(F)F)c1 [Alpelisib] (partner 2 µM)
Outline: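 A single step with final 0.05% Triton X-100, 1% formaldehyde and 1 ug/ml Hoechst fixed the cells and stained nuclei 5 days after treatment. Lung cancer cell lines in 1536-well plates had been treated by pin tool the day after seeding with one drug alone or a fixed anchor-drug dose plus five library-drug doses (not always all listed) in √10 steps, and nuclei were counted on 4× images. Relative viability is the ratio of nuclei in treated wells to nuclei in vehicle wells, taken as the median of duplicate plates.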

Cell Line	relative viability ([1]; 0.2 µM)	relative viability ([1]; 0.6325 µM)	relative viability ([1]; 2 µM)	relative viability ([1]; 6.325 µM)	relative viability ([1]; 20 µM)	relative viability ([2]; 0.02 µM)	relative viability ([2]; 0.06325 µM)	relative viability ([2]; 0.2 µM)	relative viability ([2]; 0.6325 µM)	relative viability ([2]; 2 µM)	relative viability ([3]; 0.01 µM)	relative viability ([3]; 0.03162 µM)	relative viability ([3]; 0.1 µM)	relative viability ([3]; 0.3162 µM)	relative viability ([3]; 1 µM)	relative viability ([4]; first compound 0.2 µM)	relative viability ([4]; first compound 0.6325 µM)	relative viability ([4]; first compound 2 µM)	relative viability ([4]; first compound 6.325 µM)	relative viability ([4]; first compound 20 µM)
HCC-44	0.953	0.922	0.998	0.899	0.968	1.03	1.1	1.1	0.84	0.983	0.971	0.919	1.02	1.05	0.992	0.788	0.715	0.843	0.683	0.775
SW 1573	1.13	0.919	1.01	0.94	0.696	0.946	0.9	0.844	0.952	0.838	1.18	0.89	0.955	0.98	0.573	0.891	0.777	0.8	0.726	0.988
PC-3 [JPC-3]	1.09	1.07	1.01	0.96	1	1.15	1.11	1.1	1.13	0.904	1.07	1	1.12	0.488	0.743	1.04	1.05	1.04	0.972	1.08
LOU-NH91	0.953	0.94	1.01	1.01	1.19	1.09	0.996	1.05	1.08	0.691	1.05	0.976	0.905	0.733	0.753	0.717	0.702	0.723	0.674	0.914
PC-14	1.16	0.963	0.936	0.898	1.09	1.06	0.998	0.968	1.14	0.933	1.02	0.967	1.1	–	0.845	1.15	0.885	1	0.88	1.1
NCI-H2087	1.33	0.87	0.89	0.935	1.13	1.05	0.975	1.14	1.01	1	1.04	0.796	0.796	0.617	0.639	1.19	0.974	1.21	1.07	0.973
LU99A	1.02	0.89	0.932	0.919	0.98	0.944	0.906	1.03	1	0.949	0.971	0.987	0.705	0.492	0.373	0.551	0.451	0.512	0.531	0.528
BEN	0.982	0.951	1.07	0.943	1.15	0.874	0.922	1	0.82	0.884	0.968	1.11	1.11	0.95	0.907	1.28	0.992	1.09	0.954	1.26
SK-LU-1	1.35	0.981	1.08	0.985	1.16	1.02	1.07	1.11	1.14	1.12	1.1	0.893	0.858	0.56	0.494	1.49	–	0.974	0.859	0.739
NCI-H1975	1.06	0.924	0.957	1.1	0.993	1.03	1.04	1.08	1.05	1.04	0.932	0.956	0.602	0.442	0.406	0.644	0.65	0.628	0.753	0.708
RERF-LC-KJ	1.14	0.943	0.946	0.991	1.07	1.09	1.03	1.07	1.02	0.999	1.03	0.974	0.987	0.791	0.715	0.933	0.807	0.83	0.668	0.928
A549	1.18	0.962	1.01	1.05	1.16	0.956	0.976	0.951	0.999	0.878	1.01	0.926	0.967	0.667	0.412	0.926	0.705	0.838	0.753	0.745
NCI-H441	1.37	0.951	0.896	1.04	0.915	0.999	0.845	1.08	1.06	0.859	1.01	0.928	1.08	0.78	0.753	0.942	–	0.628	0.668	0.782
LCLC-103H	1.12	0.962	0.876	0.99	1.07	1.02	1.01	0.887	0.988	0.929	1.01	1.05	0.919	0.78	0.72	0.926	0.806	0.81	0.943	1.02
HCC-78	1.04	0.907	1.04	1.04	0.994	0.962	1.07	1.06	1.14	1.02	0.947	1.12	1.15	0.927	0.878	0.327	0.406	0.244	0.347	0.51
NCI-H1915	1.1	0.997	0.989	0.96	1.01	0.986	0.994	1.04	0.99	0.885	0.987	0.915	0.757	0.489	0.3	1.17	1.05	1.09	1.03	1.07
